Measured values from patent publication US20070249620A1, “Urea Derivative” (priority 2004, published 2007).

How the values were obtained:
mouse DGAT1 = biological target: T1, mouse DGAT1 (Mus musculus, UniProt Q9Z2A7); assay: DGAT1 inhibitory effect test (microsome fraction, [14C]-oleoyl-CoA, triglyceride radioactivity by TLC); type: biochemical; settings: 0.5 h; concentration of the test compound 0.1 μg/ml; mouse DGAT1 microsomes, 23° C., 30 minutes; read-out: Inhibitory ratio
T1 construct: made in house; host or cells: insect cells (High Five, Sf9, Sf21, etc.), baculovirus expression system (Invitrogen)
T1 sequence (Q9Z2A7 1-498): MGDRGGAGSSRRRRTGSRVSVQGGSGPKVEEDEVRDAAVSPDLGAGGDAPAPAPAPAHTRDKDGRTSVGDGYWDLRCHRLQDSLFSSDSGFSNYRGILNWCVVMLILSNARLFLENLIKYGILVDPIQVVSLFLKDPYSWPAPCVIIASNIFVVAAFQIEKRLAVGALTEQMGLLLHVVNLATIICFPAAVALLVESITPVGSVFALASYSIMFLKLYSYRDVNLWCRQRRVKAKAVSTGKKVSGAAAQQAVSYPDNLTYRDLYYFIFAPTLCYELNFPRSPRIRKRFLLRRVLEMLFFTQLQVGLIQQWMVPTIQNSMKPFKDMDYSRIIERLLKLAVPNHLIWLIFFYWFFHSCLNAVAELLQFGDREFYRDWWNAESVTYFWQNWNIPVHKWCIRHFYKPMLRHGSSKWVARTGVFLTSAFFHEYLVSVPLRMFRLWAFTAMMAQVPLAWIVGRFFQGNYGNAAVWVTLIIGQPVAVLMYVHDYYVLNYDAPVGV
How it was run: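 Inhibition was scored from radiolabelled triglyceride separated by TLC, relative to vehicle and net of a 0-min background. The reaction ran for 30 min at room temperature (23 °C) in Tris-HCl pH 8.0 with MgCl2, BSA and Triton X-100. Substrates were 30 μM [14C]-oleoyl-CoA and 0.5 mM dioleoylglycerol, with mouse DGAT1 microsomes from baculovirus-infected insect cells as enzyme.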

Row | inhibition at 0.1 µg/mL (mouse DGAT1) [%] | melting point | SMILES
1 | ≥ 50 | 201 to 203 °C | CCOc1ccccc1NC(=O)Nc1ccc(N2CCN(C(=O)Nc3ccccc3C(F)(F)F)CC2)cc1 [Example 80, 4-{4-[3-(2-ethoxy-phenyl)-ureido]-phenyl}-piperazine-1-carboxylic acid (2-trifluoromethyl-phenyl)-amide]
2 | ≥ 50 | 128 to 129 °C | Cc1nc(NC(=O)Nc2ccc(N3CCN(C(=O)Nc4cc(OCCO)ccc4Cl)CC3)nc2)sc1C [Example 237, 4-{5-(3-(4,5-dimethyl-thiazol-2-yl)-ureido)-pyridin-2-yl}-piperazine-1-carboxylic acid {2-chloro-5-(2-hydroxy-ethoxy)-phenyl}-amide]
3 | ≥ 50 | 213 to 215 °C | COc1ccc(C)cc1NC(=O)Nc1ccc(N2CCN(C(=O)Cc3c(F)cccc3F)CC2)cc1 [Example 192, 1-(4-{4-[2-(2,6-difluoro-phenyl)-acetyl]-piperazin-1-yl}phenyl)-3-(2-methoxy-5-methyl-phenyl)-urea]
4 | ≥ 50 | 196 to 198 °C | COc1ccc(F)cc1NC(=O)Nc1ccc(N2CCN(C(=O)Nc3ncccc3C)CC2)nc1 [Example 298, 4-{5-[3-(5-fluoro-2-methoxy-phenyl)-ureido]-pyridin-2-yl}-piperazine-1-carboxylic acid (3-methyl-pyridin-2-yl)-amide]
5 | ≥ 50 | 101 to 105 °C | COc1cc(NC(=O)Nc2ccc(C3CCN(C(=O)Nc4ccc(OCCO)cc4Cl)CC3)cc2)cc(OC)c1 [Example 262, 4-{4-[3-(3,5-dimethoxy-phenyl)-ureido]-phenyl}-piperidine-1-carboxylic acid [2-chloro-4-(2-hydroxy-ethoxy)-phenyl]-amide]
6 | ≥ 50 | 233 to 235 °C | COc1ccc(F)cc1NC(=O)Nc1ccc(N2CCN(C(=O)Nc3ccc(C)cc3Cl)CC2)cc1 [Example 123, 4-{4-[3-(5-fluoro-2-methoxy-phenyl)-ureido]-phenyl}-piperazine-1-carboxylic acid (2-chloro-4-methyl-phenyl)-amide]
7 | ≥ 50 | 222 to 224 °C | COc1ccc(C)cc1NC(=O)Nc1ccc(N2CCN(C(=O)Nc3c(Cl)cccc3Cl)CC2)nc1 [Example 140, 4-{5-[3-(2-methoxy-5-methyl-phenyl)-ureido]-pyridin-2-yl}-piperazine-1-carboxylic acid (2,6-dichloro-phenyl)-amide]
8 | ≥ 50 | 191 to 193 °C | COc1cccc(NC(=O)Nc2ccc(N3CCN(C(=O)Nc4ncccc4C)CC3)cc2)c1 [Example 303, 4-{4-[3-(3-methoxy-phenyl)-ureido]-phenyl}-piperazine-1-carboxylic acid (3-methyl-pyridin-2-yl)-amide]
9 | ≥ 50 | 193 to 194 °C | O=C(Nc1ccc(N2CCN(C(=O)Nc3ccc(OCCO)cc3C(F)(F)F)CC2)nc1)Nc1ccccc1F [Example 222, 4-{5-[3-(2-fluoro-phenyl)-ureido]-pyridin-2-yl}-piperazine-1-carboxylic acid [4-(2-hydroxy-ethoxy)-2-trifluoromethyl-phenyl]-amide]
10 | ≥ 50 | 190 to 192 °C | CCOc1ccc(C)cc1NC(=O)Nc1ccc(N2CCN(C(=O)Nc3ccccc3C)CC2)cc1 [Example 84, 4-{4-[3-(2-ethoxy-5-methyl-phenyl)-ureido]-phenyl}-piperazine-1-carboxylic acid o-tolylamide]
11 | ≥ 50 | 159 to 160 °C | COc1ccc(C)cc1NC(=O)Nc1ccc(N2CCN(C(=O)Nc3c(C)cccc3C(=O)O)CC2)cc1 [Example 179, 2-[(4-{4-[3-(2-methoxy-5-methyl-phenyl)-ureido]-phenyl}-piperazine-1-carbonyl)-amino]-3-methyl-benzoic acid]
12 | ≥ 50 | 155 to 157 °C | COc1ccc(Cl)cc1NC(=O)Nc1ccc(N2CCN(C(=O)OC(C)(C)C)CC2)nc1 [Example 40, 4-{5-[3-(5-chloro-2-methoxy-phenyl)-ureido]-pyridin-2-yl}-piperazine-1-carboxylic acid tert-butyl ester]
13 | ≥ 50 | > 260 °C (dec.) | Cc1cccc(Cl)c1NC(=O)N1CCN(c2ccc(NC(=O)Nc3ccccc3Cl)cc2)CC1 [Example 126, 4-{4-[3-(2-chloro-phenyl)-ureido]-phenyl}-piperazine-1-carboxylic acid (2-chloro-6-methyl-phenyl)-amide]
14 | ≥ 50 | 127 to 128 °C | O=C(Nc1ccc(N2CCN(C(=O)C(O)c3ccccc3Cl)CC2)nc1)Nc1ccccc1F (centres unmarked) [Example 377, 1-(6-{4-[2-(2-chloro-phenyl)-2-hydroxy-acetyl]-piperazin-1-yl}-pyridin-3-yl)-3-(2-fluoro-phenyl)-urea]
15 | ≥ 50 | 139 to 141 °C | COc1ccccc1NC(=O)Nc1ccc(N2CCN(C(=O)Nc3cc(OCCO)ccc3Cl)CC2)nc1 [Example 235, 4-{5-[3-(2-methoxy-phenyl)-ureido]-pyridin-2-yl}-piperazine-1-carboxylic acid [2-chloro-5-(2-hydroxy-ethoxy)-phenyl]-amide]
16 | ≥ 50 | 119 to 122 °C | CCOc1ccc(C)cc1NC(=O)Nc1ccc(N2CCN(C(=O)Nc3ccc(C)cc3Cl)CC2)cc1 [Example 120, 4-{4-[3-(2-ethoxy-5-methyl-phenyl)-ureido]-phenyl}-piperazine-1-carboxylic acid (2-chloro-4-methyl-phenyl)-amide]
17 | ≥ 50 | 149 to 151 °C | COc1ccc(C)cc1NC(=O)Nc1ccc(N2CCN(C(=O)Nc3ccc(Br)cc3C#N)CC2)cc1 [Example 171, 4-{4-[3-(2-methoxy-5-methyl-phenyl)-ureido]-phenyl}-piperazine-1-carboxylic acid (4-bromo-2-cyano-phenyl)-amide]
18 | ≥ 50 | 155 to 157 °C | CCOc1ccc(F)cc1NC(=O)Nc1ccc(N2CCN(C(=O)Nc3ccc(C)cc3Cl)CC2)cc1 [Example 122, 4-{4-[3-(2-ethoxy-5-fluoro-phenyl)-ureido]-phenyl}-piperazine-1-carboxylic acid (2-chloro-4-methyl-phenyl)-amide]
19 | ≥ 50 | 199 to 200 °C | O=C(Nc1ccc(N2CCN(C(=O)Nc3ccc(OCCO)cc3C(F)(F)F)CC2)c(Cl)c1)Nc1ccccc1F [Example 221, 4-{2-chloro-4-[3-(2-fluoro-phenyl)-ureido]-phenyl}-piperazine-1-carboxylic acid [4-(2-hydroxy-ethoxy)-2-trifluoromethyl-phenyl]-amide]
20 | ≥ 50 | 259 to 261 °C | CCC(C)c1ccc(NC(=O)Nc2ccc(N3CCN(C(=O)Nc4c(C)cccc4Cl)CC3)cc2)cc1 (centres unmarked) [Example 161, 4-{4-[3-(4-sec-butyl-phenyl)-ureido]-phenyl}-piperazine-1-carboxylic acid (2-chloro-6-methyl-phenyl)-amide]
21 | ≥ 50 | 204 to 206 °C | COc1ccc(C)cc1NC(=O)Nc1ccc(N2CCN(C(=O)Nc3c(C)cccc3C)C(C)C2)cc1 (centres unmarked) [Example 199, 4-{4-[3-(2-methoxy-5-methyl-phenyl)-ureido]-phenyl}-2-methyl-piperazine-1-carboxylic acid (2,6-dimethyl-phenyl)-amide]
22 | ≥ 50 | 95 to 98 °C | COc1ccc(C)cc1NC(=O)Nc1ccc2c(c1)CCN(C(=O)Oc1ccc(CCO)cc1Cl)C2 [Example 396, 6-[3-(2-methoxy-5-methyl-phenyl)-ureido]-3,4-dihydro-1H-isoquinoline-2-carboxylic acid 2-chloro-4-(2-hydroxy-ethyl)-phenyl ester]
23 | ≥ 50 | 186 to 187 °C | Cc1nc(NC(=O)Nc2ccc(N3CCN(C(=O)Nc4ccc(OCCO)cc4Cl)CC3)cc2)sc1C [Example 272, 4-{4-[3-(4,5-dimethyl-thiazol-2-yl)-ureido]-phenyl}-piperazine-1-carboxylic acid [2-chloro-4-(2-hydroxy-ethoxy)-phenyl]-amide]
24 | ≥ 50 | 209 to 211 °C | COc1ccc(C)cc1NC(=O)Nc1ccc(N2CCN(C(=O)Nc3ncccc3C)CC2)cc1 [Example 294, 4-{4-[3-(2-methoxy-5-methyl-phenyl)-ureido]-phenyl}-piperazine-1-carboxylic acid (3-methyl-pyridin-2-yl)-amide]

Row | SMILES | inhibition at 0.1 µg/mL (mouse DGAT1) [%] | melting point
25 | CCOP(=O)(O)Cc1ccc(NC(=O)N2CCN(c3ccc(NC(=O)Nc4cc(C)ccc4OC)cc3)CC2)c(C)c1 [Example 391, {4-[(4-{4-[3-(2-methoxy-5-methyl-phenyl)-ureido]-phenyl}-piperazine-1-carbonyl)-amino]-3-methyl-benzyl}-phosphonic acid monoethyl ester] | ≥ 50 | 165 to 173 °C
